Measured values reported in patent US7396643B2, “Method for the screening, the detection and/or the quantification of transcriptional factors” (Eppendorf Array Technologies, S.A., priority 2000, dated 2008).

Tests used:
Assay type in all cases: cell-based
CREB = assay: Microarray assay of P-CREB, influence of the spacer; settings: whole cell lysates of WI-38 VA 13 fibroblasts, 10 μg/ml forskolin
Description: Step 1: Binding of the Probes on Glass.
The binding of probes was obtained as described in the example 3 using the consensus sequence of NF-KB or CREB alone or with a spacer of 50, 100, 150 and 250 bp constructed from the sequence given in example 1.
Step 2 :Binding of NFκB on the Double Strand Probe Fixed on Micro-array
This assay was performed with whole cell lysates from WI-38 VA 13 fibroblasts stimulated with IL-1β (a NFκB activator) or 10 μg/ml of forskolin(to activate CREB). The control was 20 μl of lysis buffer mixed with 30 μl of binding buffer.
Steps 3, 4 and 5: Binding of Antibodies and Detection
The binding of the primary anti-NFκB and anti-PCREB antibodies was then used for reaction on the factors followed by a second gold labelled antibody and a calorimetric detection as in example 3. […] The values for P-CREB with unstimulated cells were 5.5 and 4 respectively with no spacer and with a 100 base spacer. The values for stimulated cells were respectively of 7 and 21 respectively with no spacer and a spacer of 100 bases pairs.

NFκB = assay: Microarray assay for DNA-binding activity of NFκB in nuclear cell extracts; settings: nuclear extracts of WI-38 VA 13 fibroblasts; anti-p50, gold-labelled second antibody, silver; unstimulated cells gave 10
Description: Step 1: Binding of the Probes on Glass
Activated glass slides bearing aldehyde groups were purchased from AAT (Belgium).
The slides were first incubated in 0.8 ml of a 50 μg/ml streptavidin solution in a 10 mM phosphate buffer (pH 7.4) containing 10 mM NaCl (PBS10 buffer). After 1 h incubation at 20° C., the plates were washed 3 times for 2 min in PBS150 containing 0.02% Tween 20 and then 2 times 2 min with water. The plates were then incubated for 2 h at 20° C. in 20 ml of PBS150 solution containing 10% non fat dried milk and then washed 5 times 2 min in PBS150 solution.
Spotting was performed with the NFκB consensus probe or with the CREB consensus probe as in example 1. The capture probes were printed onto the microscopic slides with a home made robotic device. 250 μm pins from Genetix (UK) were used. The spots have an average of 400 μm in diameter and the volume dispensed is about 1 nl. The concentration of probes used was 3000 nmolaire. […]
There was no signal for the negative control, while in nuclear cell extracts, activated NFκB is detectable in cell stimulated with IL-1, with a much higher intensity than in unstimulated. The results obtained with the nuclear cell extracts have been quantitated, using a calorimetric microarray reader including the quantification software (AAT, Namur, Belgium). […]

AP-1 = assay: Microwell colorimetric DNA-binding assay, AP-1 (anti-c-fos); settings: nuclear extracts of WI-38 VA13 cells stimulated 30 min, 0.1 μg/ml PMA + 1 μM ionomycin, FIG. 2C
From the text: Step 1: Binding of the Double Strand Oligonucleotidic Probe on Multi-well Plates
The spacer double strand nucleotide sequences were constructed from the following CMV sequence: • 5′[…] (SEQ ID NO:146) acting as a spacer was linked to a) the NFκB consensus oligonucleotide 5′[…]-3′ (SEQ ID NO:147) b) the CREB consensus oligonucleotide 5′[…]-3′ (SEQ ID NO:148) and c) the AP-1 consensus oligonucleotide 5′[…]-3′ (SEQ ID NO:149). In the example the spacer was of 100 based pairs. […] Plates are then washed and the amount of DNA fixed on streptavidin-coated plates was quantified using the picogreen assay (Molecular Probes, OR, USA). […]
• cells were rinsed with cold PBS150 • cells were left swollen during 3 min in a cold hypotonic buffer (20 mM Hepes pH 7.4, 5 mM NaF, 1 mM Na2MoO4, 0.1 mM EDTA). • Cells were scrapped in 0.5 ml of hypotonic buffer containing 0.2% nonidet P40 and immediately centrifuged during 30 sec at maximal speed (13000 rpm). • The pellet was resuspended in 100 μl of lysis buffer (hypotonic buffer containing 20% glycerol, 0.4 M NaCl, phosphatases and proteases inhibitors cocktail). • The nuclear extract was agitated 30 min at 4° C., and then centrifuged for 10 min at maximal speed (13000 rpm) at 4° C. • The supernatant (=nuclear extract) was frozen at −80° C. and its proteic content was determined by the Bradford assay. […]

## C=C[C@@]1(C)CC(=O)[C@]2(O)[C@@]3(C)[C@@H](O)CCC(C)(C)[C@@H]3[C@H](O)[C@H](OC(C)=O)[C@@]2(C)O1 [forskolin]
CREB; probe with 100 bp spacer, unstimulated cells gave 4
  value for P-CREB, stimulated cells, spacer of 100 base pairs: 21
CREB; probe with no spacer, unstimulated cells gave 5.5
  value for P-CREB, stimulated cells, no spacer: 7

## IL-1: a NFκB activator used to stimulate cells
NFκB
  spot intensity for activated NFκB, stimulated cells: 175 grey intensity

## CCCCCCCCCCCCCC(=O)O[C@@H]1[C@@H](C)[C@@]2(O)[C@@H](C=C(CO)C[C@]3(O)C(=O)C(C)=C[C@@H]23)[C@@H]2C(C)(C)[C@]12OC(C)=O [PNA]
AP-1
  signal obtained for the assay of c-fos (AP-1): strongly induced
